Results reported in PMC12040169 (PLOS Biology, 2025).

Assay: in vitro
Details: human, hela cells, % viability

Compound | viability at 28.5 h, 10 µM [%] | viability at 28.5 h, 10 µM (bulk resorufin, single well) [%]
COc1ccccc1C(NC(=O)C1CCN(CCc2c[nH]c3ccccc23)CC1)c1ccccn1 (centres unmarked) [CBK147923] | 87.8 | –
COc1ccc(OCCN2CCC(C(=O)NC(c3ccccn3)c3ccccc3OC)CC2)cc1 (centres unmarked) [CBK147938] | 86.3 | –
O=C(NC(c1ccc(Cl)cc1)c1ccsc1)C1CCN(CCOc2ccccc2)CC1 (centres unmarked) [CBK147951] | 101 | –
O=C(NC(c1ccc(Cl)cc1)c1ccsc1)C1CCN(CCc2ccc(F)cc2)CC1 (centres unmarked) [CBK147976] | 88.4 | –
O=C(NC(c1ccc(-c2ccccc2)cc1)c1cnccn1)C1CCN(CCOc2ccc3ccccc3c2)CC1 (centres unmarked) [CBK147982] | 93.6 | –
O=C(NC(c1ccc(-c2ccccc2)cc1)c1cnccn1)C1CCN(C/C=C/c2ccccc2)CC1 (centres unmarked) [CBK147984] | 104 | –
CC(C)CN1CCC(C(=O)NC(c2ccc(Cl)cc2)c2cnccn2)CC1 (centres unmarked) [CBK148026] | 96.6 | –
CC(NC(=O)C1CCN(C2Cc3ccccc3C2)CC1)c1ccccc1 (centres unmarked) [CBK148031] | 95.7 | –
CC(NC(=O)C1CCN(Cc2cccnc2)CC1)c1ccc(F)cc1 (centres unmarked) [CBK148032] | 94.4 | –
CC(NC(=O)C1CCN(Cc2ncc[nH]2)CC1)c1ccc(F)cc1 (centres unmarked) [CBK148037] | 97 | –
CC(NC(=O)C1CCN(Cc2cccs2)CC1)c1ccc(F)cc1 (centres unmarked) [CBK148041] | 101 | –
COc1cc(/C=C/CN2CCC(C(=O)NC(C)c3ccc(F)cc3)CC2)ccc1OC(C)=O (centres unmarked) [CBK148061] | 90.1 | –
COc1cc(OC)nc(C(NC(=O)C2CCN(CCN3C(=O)c4ccccc4C3=O)CC2)c2ccc(F)cc2)n1 (centres unmarked) [CBK148083] | 103 | –
CCOCCN1CCC(C(=O)NC(c2ccc(F)cc2)c2nc(OC)cc(OC)n2)CC1 (centres unmarked) [CBK148087] | 98 | –
COc1cccc(CCN2CCC(C(=O)NC(c3ccc(F)cc3)c3nc(OC)cc(OC)n3)CC2)c1 (centres unmarked) [CBK148089] | 92.2 | –
COc1cc(OC)nc(C(NC(=O)C2CCN(CCc3c[nH]c4ccccc34)CC2)c2ccccc2C)n1 (centres unmarked) [CBK148101] | 104 | –
O=C(NC(c1ccc(F)cc1)c1ccc2ccccc2n1)C1CCN(CCCN2CCOCC2)CC1 (centres unmarked) [CBK148118] | 91.8 | –
COc1cc(OC)nc(C(NC(=O)C2CCN(Cc3cccn3C)CC2)c2ccc(F)cc2)n1 (centres unmarked) [CBK148170] | 104 | –
Cn1cc(CN2CCC(C(=O)NC(c3ccc4c(c3)OCO4)c3ccccn3)CC2)c2ccccc21 (centres unmarked) [CBK148183] | 94 | –
O=C(NC(c1ccccc1)c1ccco1)C1CCN(CCN2C(=O)c3ccccc3C2=O)CC1 (centres unmarked) [CBK148297] | 120 | –
CC(C)(C)C(=O)CN1CCC(C(=O)NC(c2ccccc2)c2ccco2)CC1 (centres unmarked) [CBK148298] | 109 | –
Cc1ccccc1C(c1ncccc1C)N(C)C(=O)C1CCN(Cc2ccc(Cl)c(Cl)c2)CC1 (centres unmarked) [CBK148366] | 92.2 | –

Compound | viability at 28.5 h, 10 µM [%] | viability at 28.5 h, 10 µM (bulk resorufin, single well) [%]
Cc1cccnc1C(c1ccc(F)cc1)N(C)C(=O)C1CCN(CCc2ccc(Br)cc2)CC1 (centres unmarked) [CBK148397] | 90.5 | –
CN(CCCN1CCC(C(=O)NC(c2cccnc2)c2ccc3c(c2)OCO3)CC1)S(C)(=O)=O (centres unmarked) [CBK148505] | 93.1 | –
O=C(NC(c1ccccc1)c1ccsc1)C1CCN(C2Cc3ccccc3C2)CC1 (centres unmarked) [CBK148541] | 80 | –
CC(NC(=O)C1CCN(CCOc2ccccc2)CC1)c1ccccc1 (centres unmarked) [CBK148610] | 91.5 | –
CC(NC(=O)C1CCN(CCc2ccccc2)CC1)c1ccccc1 (centres unmarked) [CBK148612] | 99.6 | –
CC(NC(=O)C1CCN(CCOc2ccc(F)cc2)CC1)c1cccc2ccccc12 (centres unmarked) [CBK148634] | 93.6 | –
CC(NC(=O)C1CCN(CCN2C(=O)c3ccccc3C2=O)CC1)c1ccc(F)cc1 (centres unmarked) [CBK148750] | 107 | –
C=CCN1CCC(C(=O)NC(C)c2cc(OC)ccc2OC)CC1 (centres unmarked) [CBK148762] | 116 | –
COc1ccc(OC)c(C(C)NC(=O)C2CCN(CCc3c[nH]c4ccccc34)CC2)c1 (centres unmarked) [CBK148763] | 99.2 | –
COc1ccc(OC)c(C(C)NC(=O)C2CCN(CCc3cccs3)CC2)c1 (centres unmarked) [CBK148766] | 98.8 | –
COc1ccc(C(NC(=O)C2CCN(CCOc3ccc4ccccc4c3)CC2)c2ccccc2C)cn1 (centres unmarked) [CBK148792] | 73.1 | –
O=C(NCC1COc2ccccc2O1)c1ccc2[nH]ccc2c1 (centres unmarked) [CBK149054] | 91.2 | –
O=C(NCc1ccc2occc2c1)c1ccc2[nH]ccc2c1 [CBK149055] | 89.7 | –
CSCCCNC(=O)c1ccc2[nH]ccc2c1 [CBK149056] | 100 | –
CN(C)CCNC(=O)c1ccc2[nH]ccc2c1 [CBK149062] | 112 | –
O=C(NCCc1ccc(O)cc1)c1ccc2[nH]ccc2c1 [CBK149063] | 89.5 | –
COc1cc(CNC(=O)c2ccc3[nH]ccc3c2)cc(OC)c1OC [CBK149073] | 91 | –
N#Cc1ccc(CNC(=O)c2ccc3[nH]ccc3c2)cc1 [CBK149078] | 87.8 | –
O=C(Nc1ccc2[nH]c(=O)[nH]c2c1)c1ccc2[nH]ccc2c1 [CBK149083] | 97.5 | –
CN1CCC(N2CCN(C(=O)c3ccc(-c4cccc(C(F)(F)F)c4)o3)CC2)CC1 [CBK149085] | 91.2 | –
Cc1onc(-c2ccc(Cl)cc2)c1C(=O)N1CCN(C2CCN(C)CC2)CC1 [CBK149087] | 97.1 | –
CN1CCC(N2CCN(C(=O)c3cnc(-c4ccccn4)nc3C(F)(F)F)CC2)CC1 [CBK149089] | 107 | –

Compound | viability at 28.5 h, 10 µM [%] | viability at 28.5 h, 10 µM (bulk resorufin, single well) [%]
CN1CCC(N2CCN(C(=O)c3ccccc3Nc3cccc(C(F)(F)F)c3)CC2)CC1 [CBK149097] | 88.7 | –
CN1CCC(N2CCN(C(=O)c3ccc4nc[nH]c4c3)CC2)CC1 [CBK149099] | 94.7 | –
O=c1cc(CN2CCC[C@@H]2CN2CCCC2)[nH]c(=O)[nH]1 [CBK149108] | 92.2 | –
O=C1NC(=O)C(CCCCN2CCC[C@@H]2CN2CCCC2)N1 (some centres unmarked) [CBK149110] | 93.4 | –
COc1cc(CN2CCC(C(=O)c3ccc(F)cc3)CC2)cc(OC)c1OC [CBK149112] | 99.5 | –
O=C(c1ccc(F)cc1)C1CCN(Cc2ccc(Cl)c(Cl)c2)CC1 [CBK149114] | 98.5 | –
NC(=O)CN1CCC(C(=O)c2ccc(F)cc2)CC1 [CBK149130] | 96.6 | –
O=C(c1ccc(F)cc1)C1CCN(Cc2ncc[nH]2)CC1 [CBK149135] | 90.1 | –
COc1ccc(OCCN2CCC(C(=O)c3ccc(F)cc3)CC2)cc1 [CBK149136] | 104 | –
O=C(CN1CCC(C(=O)c2ccc(F)cc2)CC1)c1ccsc1 [CBK149137] | 95.5 | –
CSCCN1CCC(C(=O)c2ccc(F)cc2)CC1 [CBK149145] | 89.4 | –
Nc1ncc(-c2ccc(C(=O)N3CCOCC3)cc2)nc1C(=O)Nc1ccccc1 [CBK149153] | 85.7 | –
Nc1ncc(-c2ccc(C(=O)N3CCOCC3)cc2)nc1C(=O)NC1CCCC1 [CBK149155] | 89.3 | –
Nc1ncc(-c2ccc(C(=O)N3CCOCC3)cc2)nc1C(=O)NCc1ccc(O)cc1 [CBK149161] | 109 | –
Cc1ccc(-c2oncc2C(=O)N2CCC(C#N)(c3ccccc3)CC2)cc1 [CBK149179] | – | 95.7
Cc1ccc(-c2oncc2C(=O)N2CCC(n3c(=O)[nH]c4ccccc43)CC2)cc1 [CBK149180] | 106 | –
CC(=O)Nc1ccc(-c2ccc(COC3CCN(C(=O)c4ccc(Cl)c(Cl)c4)CC3)cc2)cc1 [CBK149215] | 89.3 | –
CC(=O)Nc1ccc(-c2ccc(COC3CCN(C(=O)c4ccc(F)cc4F)CC3)cc2)cc1 [CBK149216] | 101 | –
CC(=O)Nc1ccc(-c2ccc(COC3CCN(C(=O)Cc4ccc(Cl)cc4)CC3)cc2)cc1 [CBK149218] | 94.6 | –
CC(=O)Nc1ccc(-c2ccc(COC3CCN(C(=O)Cc4ccc(C#N)cc4)CC3)cc2)cc1 [CBK149225] | 91.7 | –
COC(=O)c1ccc(-c2cc3ccccc3o2)nc1 [CBK149228T] | 85.9 | –
COC(=O)c1ccc(-c2ccsc2)nc1 [CBK149229] | 116 | –

Compound | viability at 28.5 h, 10 µM [%] | viability at 28.5 h, 10 µM (bulk resorufin, single well) [%]
CCc1ccc(-c2ccc(C(=O)OC)cn2)cc1 [CBK149232] | 95.2 | –
CCOC(=O)c1cccnc1-c1cc2ccccc2o1 [CBK149237] | 99.7 | –
CCOC(=O)c1cccnc1-c1ccc2[nH]ccc2c1 [CBK149238] | 99.7 | –
CCOC(=O)c1cccnc1-c1ccc(OC)c(OC)c1 [CBK149240] | 94.2 | –
CCOC(=O)c1cccc(-c2ccsc2)n1 [CBK149244] | 97.6 | –
CCOC(=O)c1cccc(-c2ccc(OC)c(OC)c2)n1 [CBK149247] | 95.4 | –
CCOC(=O)c1ccnc(-c2cc3ccccc3o2)c1 [CBK149253] | 101 | –
CC(C)(C)c1nc(-c2ccccc2)c2ccccn12 [CBK149256] | 101 | –
COc1ccc2[nH]cc(CC(=O)Nc3nc4c(OC)cccc4s3)c2c1 [CBK149279] | 97.8 | –
O=C(CC1CC1)NCc1ccc(-c2csnn2)cc1 [CBK149287] | 92.8 | –
O=C(NCc1ccc(-c2csnn2)cc1)c1ccco1 [CBK149289] | 89 | –
O=C(/C=C/c1ccc2c(c1)OCO2)NCc1ccc(-c2csnn2)cc1 [CBK149297] | 88.1 | –
O=C(NCc1ccc(-c2csnn2)cc1)c1ccc(Oc2ccccc2)cc1 [CBK149300] | 108 | –
O=C1CC(C(=O)NCc2ccc(-c3csnn3)cc2)c2ccccc21 (centres unmarked) [CBK149301] | 93.1 | –
COc1ccccc1OCC(=O)NCc1ccc(-c2csnn2)cc1 [CBK149303] | 99.5 | –
O=C(NCc1ccc(-c2csnn2)cc1)c1cccnc1 [CBK149309] | 87 | –
O=C(NCc1ccc(-c2csnn2)cc1)c1c(F)cccc1F [CBK149310] | 86 | –
O=C(COc1ccc(F)cc1)NCc1ccc(-c2csnn2)cc1 [CBK149315] | 98.3 | –
COc1cc(C(=O)N2CCC3(CC2)NC(=O)c2cc(Br)ccc2O3)ccc1C [CBK149464] | 92.3 | –
COc1cc(C(=O)N2CCC3(CC2)CC(=O)c2cc(Br)ccc2O3)ccc1C [CBK149465] | 110 | –
